Patent US4968819A, “Process for the preparation of chromene derivatives” (Alkaloida Vegyeszeti Gyar, priority 1983, dated 1990)
Where two headings read alike, the source gives them in different places.

Experiments:
Assay type in all cases: in vivo
[1] = system: tomato root gall nematode (Meloidogyne incognita); assay: Tomato root gall nematode test (II. stage infective larvae, treated NGM agar plate); conditions: 72 hours; for mortality at 200 µg/mL / mortality at 400 µg/mL: Meloidogyne incognita
Protocol: (6) Root gall nematode The test is carried out on II. stage infective larvae, which are collected from the root of tomato plant, placed on a filter and incubated in sterile water at 25° C. The hatched larvae are collected every 24 hours and immediately placed onto the treated nutrient medium. As nutrient medium NGM agar plate free from bacterial is used. 0.5 ml of the acetoneous solution of the test compound is applied onto the surface of the plate in a Petri-dish. After the acetone has evaporated 5 μl of the larva suspension is applied onto each plate. After 72 hours the surviving and killed insects are counted.

Caenorhabditis elegans = Caenorhabditis elegans test (treated NGM agar plate, young adults)
Protocol: (5) Caenorhabditis elegans 0.5 ml of the acetonous solution of the test compound is applied onto a NGM agar plate free from bacteria in a Petri dish. After the acetone has dried 25-30 young adults are placed on the plate. After 24 hours the surviving and killed insects are counted.

[2] = system: cotton bug (Dysdercus fasciatus); assay: Cotton bug test (topical application on II. stage larvae); conditions: for AJH effect: adultoid symptoms
Protocol: (1) Cotton bug test A dilution series is prepared from the test compound with acetone and 0.2 μl of each dilution is topically applied onto the back part of larvae of the II. stage of growth with the aid of a Hamiltion syringe. The active ingredient is absorbed through the cuticula. The animals are kept in a large glass and fed with cotton grains and water. After adult shedding the surviving insects are observed for eventual adultoid symptoms, the egg-reproduction and the development of the ovules is evaluated too. (Remark: in the cotton bug test 50 insects are used).

[3] = system: domestic fly (Musca domestica); assay: Domestic fly test (larvae in treated nutrient medium); conditions: 0.1% related to milk, 0.05% related to total nutrient medium
Protocol: The fly larvae are grown on a nutrient medium of the following composition: 2 ml of milk; 2 ml of water; 2 g of wheat bran; 0.1 ml of saturated alcoholic nipagin solution.
The nutrient medium is filled into cylindrical glass vials (30×100 mm) and 25 fly larvae are raised in each vial. The test compound is dissolved in milk; the end concentration (related to milk) amounts to 0.1% which corresponds to 0.05% (related to the total nutrient medium). The solution of the active ingredient is admixed with the nutrient medium whereupon […] of domestic fly larvae of the I. stage are placed into each vial and the vials are closed with a hard cotton-wool stopper. The nymphs emerging from the larvae are collected in each vial, counted and kept in a Petri dish (diameter 25 mm) until flies hatch from the nymphs. The hatched flies are counted.

[4] = system: cabbage butterfly (Pieris brassicae); assay: Cabbage butterfly test (sprayed cabbage seedlings); conditions: 50 EC, 0.01%; for pest or weed control at 0.01 %: Pieris brassicae, read-out: Killing rate of larvae
Protocol: From the 50 EC of the test compound a diluted series is prepared with water and the host seedlings (cabbage) are sprayed with this composition until the spray runs down. The spray is allowed to dry whereupon 20 young larvae of the II. stage are placed on each treated plant and the seedlings are kept under so-called "long-day" illumination (18 hours of illumination and 6 hours of darkness). The nibbled plants are replaced by similarly sprayed plants if necessary. The killing rate of the insects, the growth rate of the larvae and the morphological deformations of the surviving nymphs and adults are registered.
In the 50 EC compositions the concentration of compounds 23 and 25 amounts to 0.01% and that of the other compounds to 0.1%.

[5] = 200 μg/ml, first test, read-out: mortality 1.
[6] = 200 μg/ml, second test, read-out: mortality 2.
[7] = 200 μg/ml, read-out: mortality Average
[8] = 400 μg/ml, first test, read-out: mortality 1.
[9] = 400 μg/ml, second test, read-out: mortality 2.
[10] = 400 μg/ml, read-out: mortality Average
[11] = Caenorhabditis elegans, 24 h, read-out: Lethality

`CCOc1cc2c(cc1OCC)OC(C)(C)C=C2` [Compound 2] was tested, and the Nematocidal effect ([1]; 200 μg/ml) was “strong”, the Nematocidal effect ([1]; 400 μg/ml) was “strong” and the mortality at 200 µg/mL [1, 5] was 74%. It also gave a mortality at 200 µg/mL [1, 6] of 69%, a mortality at 200 µg/mL [1, 7] of 72% and a mortality at 400 µg/mL [1, 8] of 83%. For the same compound, the mortality at 400 µg/mL [1, 9] was 90% and the mortality at 400 µg/mL [1, 10] was 87%.
In the case of `CC1(C)C=Cc2cc3c(cc2O1)OCO3` [Compound 4], the Nematocidal effect ([1]; 200 μg/ml) is reported as “strong”, the Nematocidal effect ([1]; 400 μg/ml) is reported as “strong” and the mortality at 200 µg/mL [1, 5] is reported as 84%. For the same compound, the mortality at 200 µg/mL [1, 6] was 69%, the mortality at 200 µg/mL [1, 7] was 77% and the mortality at 400 µg/mL [1, 8] was 96%. The mortality at 400 µg/mL [1, 9] was 92%, the mortality at 400 µg/mL [1, 10] was 94% and the “Size of descendant population” value (Caenorhabditis elegans; 100 μg/ml) was “no descendants”. For the same compound, the “Size of descendant population” value (Caenorhabditis elegans; 200 μg/ml) was “no descendants”, the “Size of descendant population” value (Caenorhabditis elegans; 400 μg/ml) was “no descendants” and the mortality at 100 µg/mL (Caenorhabditis elegans; [11]) was 100%. The mortality at 200 µg/mL (Caenorhabditis elegans; [11]) was 100% and the mortality at 400 µg/mL (Caenorhabditis elegans; [11]) was 100%.
For `C=CCOc1cc2c(cc1OCC=C)OC(C)(C)C=C2` [Compound 5], the Nematocidal effect ([1]; 400 μg/ml) was “medial”, the mortality at 200 µg/mL [1, 5] was 18% and the mortality at 200 µg/mL [1, 6] was 29%. For the same compound, the mortality at 200 µg/mL [1, 7] was 23%, the mortality at 400 µg/mL [1, 8] was 45% and the mortality at 400 µg/mL [1, 9] was 43%. The mortality at 400 µg/mL [1, 10] was 44%, the “Size of descendant population” value (Caenorhabditis elegans; 200 μg/ml) was “some descendants” and the “Size of descendant population” value (Caenorhabditis elegans; 400 μg/ml) was “no descendants”.
In the case of `C=CCOc1cc2c(cc1OC)C=CC(C)(C)O2` [Compound 7], the “Size of descendant population” value (Caenorhabditis elegans; 200 μg/ml) is reported as “no descendants”, the “Size of descendant population” value (Caenorhabditis elegans; 400 μg/ml) is reported as “no descendants” and the mortality at 200 µg/mL (Caenorhabditis elegans; [11]) is reported as 90%. It also gave a mortality at 400 µg/mL (Caenorhabditis elegans; [11]) of 90%.
Compound `COc1cc2c(cc1OC(C)C)OC(C)(C)C=C2` [Compound 8] has an LD50 [2] of 0.45 μg/insect, a Sterilizing effect [2] of 0.2 μg/insect and an AJH effect [2] of 1 μg/insect. The “Size of descendant population” value (Caenorhabditis elegans; 200 μg/ml) was “reduced”, the “Size of descendant population” value (Caenorhabditis elegans; 400 μg/ml) was “no descendants” and the mortality at 200 µg/mL (Caenorhabditis elegans; [11]) was 70%. For the same compound, the mortality at 400 µg/mL (Caenorhabditis elegans; [11]) was 80%.
`CC(C)=CCOc1cc2c(cc1OCC=C(C)C)OC(C)(C)C=C2` [Compound 10] showed an LD50 [2] of 0.6 μg/insect.
With `CCCCOc1cc2c(cc1OCCCC)OC(C)(C)C=C2` [Compound 14] the “Size of descendant population” value (Caenorhabditis elegans; 200 μg/ml) was “reduced”, the “Size of descendant population” value (Caenorhabditis elegans; 400 μg/ml) was “reduced” and the mortality at 200 µg/mL (Caenorhabditis elegans; [11]) was 30%. It also gave a mortality at 400 µg/mL (Caenorhabditis elegans; [11]) of 80%.
`CCC(C)Oc1cc2c(cc1OC)C=CC(C)(C)O2` (stereo not drawn) [Compound 20] was tested, and the LD50 [2] was 0.4 μg/insect and the AJH effect [2] was 0.1 μg/insect.
`COc1cc2c(cc1OCC(C)C)OC(C)(C)C=C2` [Compound 21] showed an LD50 [2] of 0.4 μg/insect.
`COc1ccc2c(c1)OC(C)(C)C=C2` [Compound 23, 7-methoxy-2,2-dimethyl-2H-chromene, reference compound] showed a Survival adult [3] of 33.3%, a Survival nymph [3] of 100% and a Survival adult [4] of 50%. For the same compound, the Survival nymph [4] was 59%, the pest or weed control at 0.01 % [4] was 41% and the “Size of descendant population” value (Caenorhabditis elegans; 200 μg/ml) was “reduced”. For the same compound, the “Size of descendant population” value (Caenorhabditis elegans; 400 μg/ml) was “no descendants”.
For `CCCOc1ccc2c(c1)OC(C)(C)C=C2` [Compound 25], the Survival adult [4] was 39%, the Survival nymph [4] was 48% and the pest or weed control at 0.01 % [4] was 52%.
Work on `CCC(C)Oc1ccc2c(c1)OC(C)(C)C=C2` (stereo not drawn) [Compound 28] yielded a Survival adult [3] of 25.6% and a Survival nymph [3] of 115%.
`CC(C)COc1ccc2c(c1)OC(C)(C)C=C2` [Compound 29] showed a Survival adult [3] of 28.2% and a Survival nymph [3] of 100%.
`CCOc1cc2c(cc1OC)OC(C)(C)C=C2` [Compound 34] was tested, and the Survival adult [3] was 12.8%, the Survival nymph [3] was 85% and the Remarks (Caenorhabditis elegans; 200 μg/ml) was “paralysation”. The “Size of descendant population” value (Caenorhabditis elegans; 200 μg/ml) was “reduced”, the Remarks (Caenorhabditis elegans; 400 μg/ml) was “paralysation” and the “Size of descendant population” value (Caenorhabditis elegans; 400 μg/ml) was “some descendants”. For the same compound, the mortality at 200 µg/mL (Caenorhabditis elegans; [11]) was 15% and the mortality at 400 µg/mL (Caenorhabditis elegans; [11]) was 23%.
